Assay results taken from patent US20020193379A1, “Compositions and methods for decreasing the risk of or preventing neural tube disorders in mammals” (Insmed Incorporated, priority 2001, published 2002).
Read-outs that look alike come from different tables or passages of the source.

Legend:
[1] = test system: curly tail mice (spinal NTDs); conditions: cultured embryos and offspring of curly tail mice treated during pregnancy; cited from earlier work
[2] = test system: curly tail fetuses (spina bifida and tail flexion defects); experiment: In utero inositol treatment, oral dosing by gavage, fetuses inspected at E18.5; format: in vivo, mouse; conditions: for Curly tail, % of total for treatment group / Curly tail, number of fetuses / No. uterine resorptions / No. viable fetuses / Normal, % of total for treatment group / Normal, number of fetuses / Resorptions as % of total number of implantations / Spina bifida ± curly tail, % of total for treatment group / Spina bifida ± curly tail, number of fetuses / Mean litter size ± SEM: oral 800 μg inositol/g body weight/day; for Mean litter size ± SEM: viable fetuses per litter; for Reduction in the frequency of spina bifida / Effect on frequency of spina bifida among offspring: oral 800 μg/g body weight/day; for Effect on frequency of spina bifida among offspring: E8.5 to E10.5; for Likelihood of fetuses being normal vs PBS (ordinal multilevel regression): oral dosing study
Method: (§1) Mice—Curly tail mice are maintained as a homozygous, random-bred stock (Van Straaten, H. W. M. & Copp, A. J., Anat. Embryol. 203, 225-237 (2001)) Experimental litters were generated by timed matings, and the day of finding a copulation plug was designated embryonic day (E) 0.5.
In utero inositol treatment (oral dosing)—For oral administration, pregnant mice were gavaged with 0.5 ml inositol solution in PBS at 12 hourly intervals from E8.5 to E10.5 (six doses in total; 800 μg/g body weight/day).
(§2) Pregnant females were killed at E18.5, and the total number of implantations, classified as viable fetuses or resorptions, was recorded. Fetuses were dissected from the uterus and inspected immediately for the presence of open lumbo-sacral spina bifida and tail flexion defects: the primary manifestations of the curly tail genetic defect.

[3] = test system: curly tail mouse fetuses (NTDs characterized by spina bifida); experiment: In vivo treatment of pregnant curly-tail mice by oral gavage, fetuses scored for NTDs; conditions: three days; for Number of fetuses showing NTDs characterized by spina bifida / Percent of treated fetuses showing spina bifida: oral gavage 400 mg/kg twice daily
Method: (§3) In in vivo studies, pregnant curly-tail female mice were treated with inositols or PBS (control) by either subcutaneous injection or oral gavage. Using inositols at 75 mg/ml injected by subcutaneous minipump at […], a total daily dosage of 90 mg/kg/day was administered. Inositols were administered from gestational day 8.5 through day 18.5, and fetuses were scored for NTDs on days 12.5 and 18.5. For oral dosing, mice were administered via gavage with 400 mg/kg of inositol twice daily on gestational days 8.5 through 10.5, with fetuses scored for NTDs on day 12.5.

[4] = test system: curly tail mouse fetuses (NTDs characterized by spina bifida); experiment: In vivo treatment of pregnant curly-tail mice by subcutaneous minipump, fetuses scored for NTDs; conditions: subcutaneous 90 mg/kg/day, four to ten days
Method: as §3

curly-tail mouse embryos = experiment: In vitro culture of curly-tail mouse embryos with inositols at 20 μg/ml for 24 hours; format: cell-based; conditions: for Mean posterior neuropore length / Mean posterior neuropore to crown-rump length ratio: in vitro; for Fold decrease in mean posterior neuropore length: 24 hours of treatment in vitro
Method: In in vitro studies, curly-tail mouse embryos were explanted into culture at 9.5 days after conception, corresponding to the onset of low spinal cord neural tube closure. Inositol additions were made at the start of culture and were maintained throughout the 24 hour culture period. Inositols were maintained at 20 μg/ml. At the end of culture, the embryos were dissected from their extraembryonic membranes, and crown-rump and posterior neuropore lengths were measured as indices of developmental growth, progression and low spinal neural tube closure.

[5] = test system: curly tail fetuses (spina bifida and tail flexion defects); format: in vivo, mouse; conditions: for Likelihood of fetuses being normal vs PBS (ordinal multilevel regression): subcutaneous; for Decrease in spina bifida frequency relative to PBS controls: subcutaneous 72 and 144 μg/g body weight/day
Method: as §1
In utero inositol treatment (subcutaneous administration)—For sub-cutaneous administration, osmotic mini-pumps (capacity 100 μl, delivery rate 1 μl/hour; Model 1003D, Alzet) were filled with solutions of 30, 75 or 150 mg/ml inositol (delivering 29, 72 and 144 μg inositol/g body weight/day respectively for a 25 g mouse), or PBS as a control. Mini-pumps were incubated in sterile PBS at 37° C. for 4 hours and then implanted subcutaneously on the back of pregnant mice at E8.5. General anesthesia was induced by an intra-peritoneal injection of 0.01 ml/g body weight of a solution comprising 10% Hypnovel® (midazolam 5 mg/ml) and 25% Hypnorm® (fentanyl citrate 0.315 mg/ml, fluanisone 10 mg/ml) in sterile distilled water.
as §2

[6] = test system: rat fibroblasts expressing the human insulin receptor; conditions: cited from earlier work
[7] = test system: curly tail embryos (posterior neuropore closure); format: cell-based, mouse; conditions: for Effect on posterior neuropore length: vs PBS-treated controls
Method: as §1
In vitro inositol treatment—E9.5 embryos (17-19 somite stage) were cultured for 24 hours at 38° C. in whole rat serum. Thirty minutes after the start of culture, myo-inositol (Sigma, UK) or D-chiro-inositol (Insmed, Va., USA) was added to the medium (62.5 μl of inositol stock per ml rat serum) to a final concentration of 5, 10, 20 or 50 μg/ml inositol. Control cultures received an equal volume of phosphate buffered saline (PBS). Following culture, embryos were scored for: (i) posterior neuropore length (the distance from the rostral end of the posterior neuropore to the tip of the tail bud), (ii) crown-rump length and (iii) somite number.

NTDs = conditions: folic acid supplementation in early pregnancy; cited from earlier work
[8] = test system: rats rendered diabetic by streptozotocin; conditions: cited from earlier work
[9] = test system: patients with polycystic ovary syndrome; conditions: cited from earlier work
[10] = subcutaneous 29 μg inositol/g body weight/day
[11] = subcutaneous 72 μg inositol/g body weight/day
[12] = subcutaneous 144 μg inositol/g body weight/day

## O[C@H]1[C@H](O)[C@@H](O)[C@H](O)[C@@H](O)[C@H]1O [myo-inositol, reference compound]
[1]
  Effect on incidence of spinal NTDs: significantly reducing the incidence of spinal NTDs
[2]
  Curly tail, % of total for treatment group: 42.9%
  Curly tail, number of fetuses: 15
  No. uterine resorptions: 3
  No. viable fetuses: 35
  Normal, % of total for treatment group: 48.6%
  Normal, number of fetuses: 17
  Resorptions as % of total number of implantations: 7.9%
  Spina bifida ± curly tail, % of total for treatment group: 8.6%
  Spina bifida ± curly tail, number of fetuses: 3
  Mean litter size ± SEM: 5.83 ± 0.48
  Reduction in the frequency of spina bifida: 53%
  Effect on frequency of spina bifida among offspring: marked reduction in the frequency of spina bifida
  Likelihood of fetuses being normal vs PBS (ordinal multilevel regression): did not differ significantly
[3]
  Number of fetuses showing NTDs characterized by spina bifida: 3
  Percent of treated fetuses showing spina bifida: 8.6%
[4]
  Number of fetuses showing NTDs characterized by spina bifida: 4
  Percent of treated fetuses showing spina bifida: 6.3%
curly-tail mouse embryos; 20 μg/ml, 24 hours
  Mean posterior neuropore length: 0.601±0.090
  Mean posterior neuropore to crown-rump length ratio: 0.172 ±0.026
curly-tail mouse embryos
  Fold decrease in mean posterior neuropore length: 6 fold
[5]
  Likelihood of fetuses being normal vs PBS (ordinal multilevel regression): reached statistical significance
  Decrease in spina bifida frequency relative to PBS controls: 54-56%
[5]; [10]
  Curly tail, % of total for treatment group: 41.4%
  Curly tail, number of fetuses: 12
  Normal, % of total for treatment group: 37.9%
  Normal, number of fetuses: 11
  Spina bifida ± curly tail, % of total for treatment group: 20.7%
  Spina bifida ± curly tail, number of fetuses: 6
[5]; [11]
  Curly tail, % of total for treatment group: 55.2%
  Curly tail, number of fetuses: 37
  Normal, % of total for treatment group: 38.8%
  Normal, number of fetuses: 26
  Spina bifida ± curly tail, % of total for treatment group: 6.0%
  Spina bifida ± curly tail, number of fetuses: 4
[5]; [12]
  Curly tail, % of total for treatment group: 55.3%
  Curly tail, number of fetuses: 52
  Normal, % of total for treatment group: 36.2%
  Normal, number of fetuses: 34
  Spina bifida ± curly tail, % of total for treatment group: 8.5%
  Spina bifida ± curly tail, number of fetuses: 8
[6]
  Effect of insulin stimulation on incorporation into phospholipids: only marginal
[7]
  Crown-rump length compared with PBS-treated controls: no significant difference
[7]; 20 μg/ml
  Effect on posterior neuropore length: not different from PBS-treated controls
[7]; 50 μg/ml
  Effect on posterior neuropore length: comparable effect

## Nc1nc2ncc(CNc3ccc(C(=O)N[C@@H](CCC(=O)O)C(=O)O)cc3)nc2c(=O)[nH]1 [folic acid]
NTDs
  NTDs that can be prevented: Up to 70%

## OC1C(O)C(O)C(O)C(O)C1O [D-chiro-inositol]
[2]
  Curly tail, % of total for treatment group: 30.8%
  Curly tail, number of fetuses: 12
  No. uterine resorptions: 3
  No. viable fetuses: 39
  Normal, % of total for treatment group: 66.7%
  Normal, number of fetuses: 26
  Resorptions as % of total number of implantations: 7.1%
  Spina bifida ± curly tail, % of total for treatment group: 2.6%
  Spina bifida ± curly tail, number of fetuses: 1
  Mean litter size ± SEM: 6.50 ± 1.09
  Reduction in the frequency of spina bifida: 86%
  Effect on frequency of spina bifida among offspring: marked reduction in the frequency of spina bifida
  Likelihood of fetuses being normal vs PBS (ordinal multilevel regression): more likely to be normal
[8]
  Reduction in plasma glucose level compared with exogenous myo-inositol: much larger reduction in plasma glucose level
[3]
  Number of fetuses showing NTDs characterized by spina bifida: 1
  Percent of treated fetuses showing spina bifida: 2.3%
[3]; oral
  Fold decrease in number of fetuses with spina bifida compared to control: 8 fold
  Fold decrease in number of fetuses with spina bifida compared to myo-inositol: 3 fold
[4]
  Fold decrease in number of fetuses with spina bifida compared to control: 9 fold
  Fold decrease in number of fetuses with spina bifida compared to myo-inositol: 4 fold
  Number of fetuses showing NTDs characterized by spina bifida: 1
  Percent of treated fetuses showing spina bifida: 1.7%
curly-tail mouse embryos; 20 μg/ml, 24 hours
  Mean posterior neuropore length: 0.095±0.055
  Mean posterior neuropore to crown-rump length ratio: .029±.018
curly-tail mouse embryos; 20 μg/ml, 24 hours, compared to control or myo-inositol treated
  Fold decrease in mean posterior neuropore to crown-rump length ratio: 5.6 fold
curly-tail mouse embryos
  Fold decrease in mean posterior neuropore length: 6 fold
[5]
  Likelihood of fetuses being normal vs PBS (ordinal multilevel regression): significantly more likely to be normal
  Decrease in spina bifida frequency relative to PBS controls: 73-83%
[5]; [10]
  Curly tail, % of total for treatment group: 65.4%
  Curly tail, number of fetuses: 17
  Normal, % of total for treatment group: 23.1%
  Normal, number of fetuses: 6
  Spina bifida ± curly tail, % of total for treatment group: 11.5%
  Spina bifida ± curly tail, number of fetuses: 3
[5]; [11]
  Curly tail, % of total for treatment group: 45.4%
  Curly tail, number of fetuses: 39
  Normal, % of total for treatment group: 52.3%
  Normal, number of fetuses: 45
  Spina bifida ± curly tail, % of total for treatment group: 2.3%
  Spina bifida ± curly tail, number of fetuses: 2
[5]; [12]
  Curly tail, % of total for treatment group: 46.5%
  Curly tail, number of fetuses: 46
  Normal, % of total for treatment group: 48.5%
  Normal, number of fetuses: 48
  Spina bifida ± curly tail, % of total for treatment group: 5.0%
  Spina bifida ± curly tail, number of fetuses: 5
[6]
  Effect of insulin stimulation on incorporation into phospholipids: significant increase
[7]
  Crown-rump length compared with PBS-treated controls: no significant difference
[7]; 20 μg/ml
  Effect on posterior neuropore length: reduced neuropore length
[7]; 50 μg/ml
  Effect on posterior neuropore length: reduced neuropore length
[7]; 5-10 μg/ml
  Effect on posterior neuropore length: not different from PBS-treated controls
[9]
  Effect on the action of insulin: increase the action of insulin
